Results from ChEMBL document CHEMBL1201862, “PubChem BioAssay data set” (2004).
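96-well plates; 48 h exposure; 5 concentrations. Endpoints by linear interpolation between flanking doses. Not reached: highest tested concentration assigned. GI50: concentration for 50% inhibition of growth.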 Activity calls are given as the source filed them. No stated cut-off is given here; in the data, active = GI50 up to about 1.1 µM and inactive = higher.

Experiments:
Test in all cases: NCI anticancer screen, dose series, 48 h
[1] = tested on: 786-0
[2] = tested on: A498
[3] = tested on: A549
[4] = tested on: ACHN
[5] = tested on: BT-549
[6] = tested on: CCRF-CEM
[7] = tested on: COLO 205
[8] = tested on: DU-145
[9] = tested on: EKVX
[10] = tested on: HCT-116
[11] = tested on: HCT-15
[12] = tested on: HL-60
[13] = tested on: HOP-62
[14] = tested on: HOP-92
[15] = tested on: HT-29
[16] = tested on: Hs-578T
[17] = tested on: IGROV-1
[18] = tested on: K562
[19] = tested on: KM12
[20] = tested on: LOX IMVI
[21] = tested on: M14
[22] = tested on: MCF7
[23] = tested on: MDA-MB-231
[24] = tested on: MDA-MB-435
[25] = tested on: MDA-N
[26] = tested on: MOLT-4
[27] = tested on: Malme-3M
[28] = tested on: NCI-H226
[29] = tested on: NCI-H23
[30] = tested on: NCI-H460
[31] = tested on: NCI/ADR-RES
[32] = tested on: OVCAR-3
[33] = tested on: OVCAR-4
[34] = tested on: OVCAR-5
[35] = tested on: OVCAR-8
[36] = tested on: PC-3
[37] = tested on: RPMI-8226
[38] = tested on: RXF 393
[39] = tested on: SF-268
[40] = tested on: SF-295
[41] = tested on: SF-539
[42] = tested on: SK-MEL-28
[43] = tested on: SK-MEL-2
[44] = tested on: SK-MEL-5
[45] = tested on: SK-OV-3
[46] = tested on: SN12C
[47] = tested on: SNB-19
[48] = tested on: SNB-75
[49] = tested on: SR
[50] = tested on: SW-620
[51] = tested on: T47D
[52] = tested on: TK-10
[53] = tested on: U-251
[54] = tested on: UACC-257
[55] = tested on: UACC-62
[56] = tested on: UO-31
[57] = tested on: CAKI-1
[58] = tested on: HCC 2998
[59] = tested on: NCI-H522

CCN1C[C@]2(C)CC[C@H](OC)C34C5C[C@@H]6[C@@H](OC)C[C@@](OC)(C5[C@H]6OCc5ccccc5)C(C13)[C@H](OC(C)=O)[C@@H]42 (some centres undefined)
GI50 [1]: > 100 µM (inactive)
GI50 [2]: > 100 µM (inactive)
GI50 [3]: > 100 µM (inactive)
GI50 [4]: > 100 µM (inactive)
GI50 [5]: > 100 µM (inactive)
GI50 [6]: > 100 µM (inactive)
GI50 [7]: 75.2 µM (inactive)
GI50 [8]: > 100 µM (inactive)
GI50 [9]: > 100 µM (inactive)
GI50 [10]: > 100 µM (inactive)
GI50 [11]: > 100 µM
GI50 [12]: 6.95 µM (inactive)
GI50 [13]: > 100 µM (inactive)
GI50 [14]: 38.6 µM (inactive)
GI50 [15]: > 100 µM (inactive)
GI50 [16]: > 100 µM (inactive)
GI50 [17]: > 100 µM (inactive)
GI50 [18]: > 100 µM (inactive)
GI50 [19]: > 100 µM (inactive)
GI50 [20]: > 100 µM (inactive)
GI50 [21]: 97.1 µM (inactive)
GI50 [22]: > 100 µM (inactive)
GI50 [23]: > 100 µM (inactive)
GI50 [24]: > 100 µM (inactive)
GI50 [25]: > 100 µM (inactive)
GI50 [26]: 73.6 µM (inactive)
GI50 [27]: > 100 µM (inactive)
GI50 [28]: > 100 µM (inactive)
GI50 [29]: > 100 µM (inactive)
GI50 [30]: 59.8 µM (inactive)
GI50 [31]: > 100 µM (inactive)
GI50 [32]: 64.3 µM (inactive)
GI50 [33]: > 100 µM (inactive)
GI50 [34]: > 100 µM (inactive)
GI50 [35]: > 100 µM (inactive)
GI50 [36]: 82.8 µM (inactive)
GI50 [37]: > 100 µM (inactive)
GI50 [38]: > 100 µM (inactive)
GI50 [39]: > 100 µM (inactive)
GI50 [40]: > 100 µM (inactive)
GI50 [41]: > 100 µM (inactive)
GI50 [42]: > 100 µM (inactive)
GI50 [43]: > 100 µM (inactive)
GI50 [44]: > 100 µM (inactive)
GI50 [45]: > 100 µM (inactive)
GI50 [46]: > 100 µM (inactive)
GI50 [47]: > 100 µM (inactive)
GI50 [48]: 1.18 µM (inactive)
GI50 [49]: > 100 µM (inactive)
GI50 [50]: > 100 µM (inactive)
GI50 [51]: > 100 µM (inactive)
GI50 [52]: > 100 µM (inactive)
GI50 [53]: > 100 µM (inactive)
GI50 [54]: 45.8 µM (inactive)
GI50 [55]: > 100 µM (inactive)
GI50 [56]: > 100 µM (inactive)

COC(=O)[C@]1(c2cc3ccccc3[nH]2)CC2CN(CC(=O)N(C)OC)C1C1OC(C)(C)OC21 (some centres undefined)
GI50 [1]: 45.9 µM (inactive)
GI50 [2]: 24 µM (inactive)
GI50 [3]: 33.3 µM (inactive)
GI50 [4]: 42.7 µM (inactive)
GI50 [5]: 43 µM (inactive)
GI50 [57]: 54.2 µM (inactive)
GI50 [6]: 53.8 µM (inactive)
GI50 [7]: 31.7 µM (inactive)
GI50 [8]: > 100 µM (inactive)
GI50 [9]: 63.5 µM (inactive)
GI50 [58]: 38 µM (inactive)
GI50 [10]: 32.4 µM (inactive)
GI50 [11]: 39.9 µM
GI50 [12]: 27.2 µM (inactive)
GI50 [13]: 83.9 µM (inactive)
GI50 [14]: 47.8 µM (inactive)
GI50 [15]: 61.9 µM (inactive)
GI50 [16]: > 100 µM (inactive)
GI50 [17]: 59.3 µM (inactive)
GI50 [18]: 35.2 µM (inactive)
GI50 [19]: 29.6 µM (inactive)
GI50 [20]: 59.7 µM (inactive)
GI50 [21]: 41.3 µM (inactive)
GI50 [22]: 36.1 µM (inactive)
GI50 [23]: 31.6 µM (inactive)
GI50 [24]: 44.2 µM (inactive)
GI50 [25]: 49.5 µM (inactive)
GI50 [26]: 8.32 µM (inactive)
GI50 [27]: > 100 µM (inactive)
GI50 [28]: 56 µM (inactive)
GI50 [29]: 45.8 µM (inactive)
GI50 [30]: 39 µM (inactive)
GI50 [59]: > 100 µM (inactive)
GI50 [31]: 41.6 µM (inactive)
GI50 [32]: 41.8 µM (inactive)
GI50 [33]: 36.9 µM (inactive)
GI50 [34]: > 100 µM (inactive)
GI50 [35]: 75.3 µM (inactive)
GI50 [36]: 42.5 µM (inactive)
GI50 [37]: 23.2 µM (inactive)
GI50 [38]: 45.8 µM (inactive)
GI50 [39]: > 100 µM (inactive)
GI50 [40]: 36.1 µM (inactive)
GI50 [41]: > 100 µM (inactive)
GI50 [42]: > 100 µM (inactive)
GI50 [43]: 74.8 µM (inactive)
GI50 [44]: 31 µM (inactive)
GI50 [45]: > 100 µM (inactive)
GI50 [46]: 55 µM (inactive)
GI50 [47]: 92.9 µM (inactive)
GI50 [48]: > 100 µM (inactive)
GI50 [50]: 93.3 µM (inactive)
GI50 [51]: 28.6 µM (inactive)
GI50 [52]: 56.6 µM (inactive)
GI50 [53]: 54.3 µM (inactive)
GI50 [54]: 32 µM (inactive)
GI50 [55]: 61.7 µM (inactive)
GI50 [56]: 37.5 µM (inactive)
